Source: patent publication US6737383B1, “Herbicidal oxadiazolidines” (priority 1999, dated 2004)

Experiments:
bedstraw = assay: Test B pre/postemergence bedstraw; type: in vivo, Galium aparine
How it was run: (§1)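 Test chemicals in a non-phytotoxic solvent mixture with surfactant were sprayed preemergence onto planted seeds and postemergence onto plants 2 to 18 cm tall (1- to 4-leaf stage). After twelve to sixteen days in a greenhouse, injury was visually rated against untreated controls from 0 (no effect) to 10 (complete control).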

blackgrass = assay: Test B pre/postemergence blackgrass; type: in vivo, Alopecurus myosuroides
How it was run: as §1

giant foxtail = assay: Test B pre/postemergence giant foxtail; type: in vivo, Setaria faberii
How it was run: as §1

morningglory = assay: Test B pre/postemergence morningglory; type: in vivo, Ipomoea hederacea
How it was run: as §1

pigweed = assay: Test B pre/postemergence pigweed; type: in vivo, Amaranthus retroflexus
How it was run: as §1

rape = assay: Test B pre/postemergence rape; type: in vivo, Brassica napus
How it was run: as §1

soybean = assay: Test B pre/postemergence soybean; type: in vivo, Glycine max
How it was run: as §1

sugar beet = assay: Test B pre/postemergence sugar beet; type: in vivo, Beta vulgaris
How it was run: as §1

velvetleaf = assay: Test B pre/postemergence velvetleaf; type: in vivo, Abutilon theophrasti
How it was run: as §1

wheat = assay: Test B pre/postemergence wheat; type: in vivo, Triticum aestivum
How it was run: as §1

wild oat = assay: Test B pre/postemergence wild oat; type: in vivo, Avena fatua
How it was run: as §1

purple nutsedge = assay: Test B pre/postemergence purple nutsedge; type: in vivo, Cyperus rotundus
How it was run: as §1

rice = assay: Test B flood test rice; type: in vivo, Oryza sativa
How it was run: (§2)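 Each value is a visual injury score relative to controls, with 10 meaning complete control and 0 no effect. Evaluation took place twelve to sixteen days after the 2-leaf-stage plants were treated and kept in the greenhouse.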

smallflower flatsedge = assay: Test B flood test smallflower flatsedge; type: in vivo, Cyperus difformis
How it was run: as §2

duck salad = assay: Test B flood test duck salad; type: in vivo, Heteranthera limosa
How it was run: as §2

bamyardgrass = assay: Test B flood test barnyardgrass; type: in vivo, Echinochloa crus-galli
How it was run: as §2

[1] = Postemergence, Rate 125 g/ha, scale of 0 to 10 where 0 is no effect and 10 is complete control
[2] = Preemergence, Rate 62 g/ha, scale of 0 to 10 where 0 is no effect and 10 is complete control
[3] = Preemergence, Rate 125 g/ha, 0 is no effect, 10 is complete control
[4] = Preemergence, Rate 250 g/ha, scale 0 to 10, 0 is no effect, 10 is complete control
[5] = Preemergence, Rate 500 g/ha, scale 0 to 10 (0 no effect, 10 complete control)
[6] = Rate 62 g/ha, Postemergence, scale of 0 to 10 where 0 is no effect and 10 is complete control
[7] = Rate 250 g/ha, Postemergence, scale 0 to 10, 0 is no effect, 10 is complete control
[8] = Rate 500 g/ha, Postemergence, scale 0 to 10
[9] = Postemergence (flood test species), Rate 125 g/ha, scale of 0 to 10 where 0 is no effect and 10 is complete control
[10] = Rate 62 g/ha, Postemergence section, flood test species, scale of 0 to 10 where 0 is no effect and 10 is complete control
[11] = Rate 250 g/ha, Postemergence (flood test), scale 0 to 10, 0 is no effect, 10 is complete control
[12] = Rate 500 g/ha, listed under Postemergence (flood test species), scale 0 to 10

## CC(C)N(C(=O)n1oc(=O)n(N(C)C)c1=O)c1ccc(F)cc1 [Compound 170]
bedstraw; [1]
  Bedstraw plant response rating: 0
bedstraw; [2]
  Bedstraw plant response rating: 0
bedstraw; [3]
  Bedstraw plant response rating (0 to 10 scale): 0
bedstraw; [4]
  Bedstraw plant response rating: 6
bedstraw; [5]
  Bedstraw plant response rating: 9
bedstraw; [6]
  Bedstraw plant response rating: 0
bedstraw; [7]
  Plant response rating, Bedstraw: 0
bedstraw; [8]
  Bedstraw plant response rating: 2
blackgrass; [1]
  Blackgrass plant response rating: 9
blackgrass; [2]
  Blackgrass plant response rating: 10
blackgrass; [3]
  Blackgrass plant response rating (0 to 10 scale): 10
blackgrass; [4]
  Blackgrass plant response rating: 10
blackgrass; [5]
  Blackgrass plant response rating: 10
blackgrass; [6]
  Blackgrass plant response rating: 9
blackgrass; [7]
  Plant response rating, Blackgrass: 9
blackgrass; [8]
  Blackgrass plant response rating: 9
Giant foxtail; [1]
  Giant foxtail plant response rating: 7
Giant foxtail; [2]
  Giant foxtail plant response rating: 9
Giant foxtail; [3]
  Giant foxtail plant response rating (0 to 10 scale): 10
Giant foxtail; [4]
  Giant foxtail plant response rating: 10
Giant foxtail; [5]
  Giant foxtail plant response rating: 10
Giant foxtail; [6]
  Giant foxtail plant response rating: 4
Giant foxtail; [7]
  Plant response rating, Giant foxtail: 8
Giant foxtail; [8]
  Giant foxtail plant response rating: 8
morningglory; [1]
  Morningglory plant response rating: 1
morningglory; [2]
  Morningglory plant response rating: 0
morningglory; [3]
  Morningglory plant response rating (0 to 10 scale): 3
morningglory; [4]
  Morningglory plant response rating: 6
morningglory; [5]
  Morningglory plant response rating: 10
morningglory; [6]
  Morningglory plant response rating: 0
morningglory; [7]
  Plant response rating, Morningglory: 1
morningglory; [8]
  Morningglory plant response rating: 2
pigweed; [1]
  Redroot pigweed plant response rating: 0
pigweed; [2]
  Redroot pigweed plant response rating: 10
pigweed; [3]
  Redroot pigweed plant response rating (0 to 10 scale): 10
pigweed; [4]
  Redroot pigweed plant response rating: 10
pigweed; [5]
  Redroot pigweed plant response rating: 10
pigweed; [6]
  Redroot pigweed plant response rating: 0
pigweed; [7]
  Plant response rating, Redroot pigweed: 6
pigweed; [8]
  Redroot pigweed plant response rating: 6
rape; [1]
  Rape plant response rating: 0
rape; [2]
  Rape plant response rating: 2
rape; [3]
  Rape plant response rating (0 to 10 scale): 8
rape; [4]
  Rape plant response rating: 10
rape; [5]
  Rape plant response rating: 10
rape; [6]
  Rape plant response rating: 0
rape; [7]
  Plant response rating, Rape: 0
rape; [8]
  Rape plant response rating: 3
soybean; [1]
  Soybean plant response rating: 3
soybean; [2]
  Soybean plant response rating: 0
soybean; [3]
  Soybean plant response rating (0 to 10 scale): 1
soybean; [4]
  Soybean plant response rating: 4
soybean; [5]
  Soybean plant response rating: 9
soybean; [6]
  Soybean plant response rating: 2
soybean; [7]
  Plant response rating, Soybean: 4
soybean; [8]
  Soybean plant response rating: 7
Sugar beet; [1]
  Sugarbeets plant response rating: 0
Sugar beet; [2]
  Sugarbeets plant response rating: 4
Sugar beet; [3]
  Sugarbeets plant response rating (0 to 10 scale): 8
Sugar beet; [4]
  Sugarbeets plant response rating: 8
Sugar beet; [5]
  Sugarbeets plant response rating: 10
Sugar beet; [6]
  Sugarbeets plant response rating: 0
Sugar beet; [7]
  Plant response rating, Sugarbeets: 2
Sugar beet; [8]
  Sugarbeets plant response rating: 4
velvetleaf; [2]
  Velvetleaf plant response rating: 3
velvetleaf; [3]
  Velvetleaf plant response rating (0 to 10 scale): 7
velvetleaf; [4]
  Velvetleaf plant response rating: 10
velvetleaf; [5]
  Velvetleaf plant response rating: 10
velvetleaf; [7]
  Plant response rating, Velvetleaf: 5
velvetleaf; [8]
  Velvetleaf plant response rating: 5
wheat; [2]
  Wheat plant response rating: 5
wheat; [3]
  Wheat plant response rating (0 to 10 scale): 6
wheat; [4]
  Wheat plant response rating: 8
wheat; [5]
  Wheat plant response rating: 8
wheat; [7]
  Plant response rating, Wheat: 6
wheat; [8]
  Wheat plant response rating: 7
Wild oat; [2]
  Wild oats plant response rating: 7
Wild oat; [3]
  Wild oats plant response rating (0 to 10 scale): 9
Wild oat; [4]
  Wild oats plant response rating: 10
Wild oat; [5]
  Wild oats plant response rating: 10
Wild oat; [7]
  Plant response rating, Wild oats: 3
Wild oat; [8]
  Wild oats plant response rating: 6
Purple nutsedge; [1]
  Nutsedge plant response rating: 2
Purple nutsedge; [2]
  Nutsedge plant response rating: 0
Purple nutsedge; [3]
  Nutsedge plant response rating (0 to 10 scale): 9
Purple nutsedge; [4]
  Nutsedge plant response rating: 9
Purple nutsedge; [5]
  Nutsedge plant response rating: 9
Purple nutsedge; [6]
  Nutsedge plant response rating: 2
Purple nutsedge; [7]
  Plant response rating, Nutsedge: 7
Purple nutsedge; [8]
  Nutsedge plant response rating: 7
rice; [9]
  Rice plant response rating: 0
rice; [10]
  Rice plant response rating: 0
rice; [11]
  Plant response rating, Rice: 0
rice; [12]
  Rice plant response rating: 0
Smallflower flatsedge; [9]
  S. Flatsedge plant response rating: 0
Smallflower flatsedge; [10]
  S. Flatsedge plant response rating: 0
Smallflower flatsedge; [11]
  Plant response rating, S. Flatsedge: 0
Smallflower flatsedge; [12]
  S. Flatsedge plant response rating: 0
Duck salad; [9]
  Ducksalad plant response rating: 0
Duck salad; [10]
  Ducksalad plant response rating: 0
Duck salad; [11]
  Plant response rating, Ducksalad: 0
Duck salad; [12]
  Ducksalad plant response rating: 0
bamyardgrass; [9]
  Barnyardgrass plant response rating: 0
bamyardgrass; [10]
  Barnyardgrass plant response rating: 0
bamyardgrass; [11]
  Plant response rating, Barnyardgrass: 0
bamyardgrass; [12]
  Barnyardgrass plant response rating: 0
